Experimental data published in patent publication US8299178B2, “Stable micelles formed with diblock copolymers of critical micelle concentration copolymer and temperature-sensitive copolymer” (National Tsing Hua University, priority 2009, dated 2012).

Tests used:
[1] = literature value; cited from earlier work
[2] = system: HeLa cells; assay: Internalization of Dox in HeLa cells by confocal laser scanning microscopy; format: cell-based, human; details: Dox ca. 10 μg/mL, one hour of incubation
Method: Dox accumulated in HeLa cells was localized using a Carl Zeiss LSM5 PASCAL confocal laser scanning microscopy (CLSM). The HeLa cells were seeded 1×10^5 per well on cover-slides for 24 h and were then treated with free Dox or Dox-mixed micelles. The concentration of Dox was ca. 10 μg/mL. Dox-mixed micelles were washed with PBS to remove untrapped Dox twice before use. After some time, the cells were washed twice with PBS, and then mounted on a slide with 4 wt % paraformaldehyde for CLSM observation. Fluorescence was observed by confocal microscope at 488 nm for excitation and an LP filter of 590 nm for Dox detection.
The time-dependent fluorescence intensity of Dox after Dox-mixed micelles incubated with human cervical epithelioid carcinoma (HeLa) cells was measured with free Dox (Dox-HCl) being used for comparison. […] Subsequently, the acidic endosomal compartment (ca. pH 5.5-5.0) induced Dox release due to mixed micelle dissociation by VIm protonation.

[3] = system: HeLa cells; assay: MTT cytotoxicity test using HeLa cells; format: cell-based, human
Method: The Dox activities of free Dox and Dox-mixed micelles were determined by performing cytotoxicity tests using HeLa cells (5×10^3 cell/mL). Cells that survived after incubation were estimated by a tetrazolium dye (MTT) assay. Dox-mPEG-b-P(NnPAAm-co-VIm) micelle was used for comparison. […] The IC50 of free Dox and Dox-loaded micelles are summary in Table 3.
Introducing mPEG-b-PLA into the micelle structure not only decreases mPEG-b-P(NIPAAm-co-VIm) quantity, decreases material cytotoxicity with a positive charge (i.e. VIm), but also stabilizes the micellar structure for biomedical use.

COc1cccc2c1C(=O)c1c(O)c3c(c(O)c1C2=O)C[C@@](O)(C(=O)CO)C[C@@H]3O[C@H]1C[C@H](N)[C@H](O)[C@H](C)O1 [Free Dox, doxorubicin]
pKa [1]: ~7 | localization of Dox in cells [2]: accumulated in both the nucleus and the cytoplasm | Dox activity compared with the Dox-loaded micelles [3]: more potent activity
